In the RepoRT retention time repository:

Assay: HILIC, Waters ACQUITY UPLC BEH Amide, 100 × 2.1 mm, 1.7 µm; A: water + 0.125% formic acid + 10 mM ammonium formate; B: 5% water + 95% acetonitrile + 0.125% formic acid + 10 mM ammonium formate; gradient (min/%B) 0/100 2/100 7.7/70 9.5/40 10.25/30 12.75/100 17/100
Conditions: stereoisomer not certain

| Structure (SMILES) | LC retention time |
| --- | --- |
| O=c1n(CCCN2CCN(c3cccc(Cl)c3)CC2)nc2ccccn12 [Trazodone] | 2.38 min |
| Clc1cccc(Cl)c1NC1=NCCN1 [Clonidine] | 2.85 min |
| COc1ccc(C=O)cc1OC [3,4-Dimethoxybenzaldehyde] | 1.08 min |
| NC(=O)c1cccnc1 [Nicotinamide] | 1.7 min |
| Cc1nc2ccccn2c(=O)c1CCN1CCC(C(=O)c2ccc(F)cc2)CC1 [Pirenperone] | 3.5 min |
| CN1C(CC(=O)c2ccccc2)CCCC1CC(O)c1ccccc1 (stereo not given) [Lobeline A] | 2.02 min |
| CNC(C)Cc1ccccc1 (stereo not given) [Methamphetamine] | 3.33 min |
| CCOP(=O)(OCC)Oc1ccc([N+](=O)[O-])cc1 [Paraoxon] | 1.02 min |
| C=CC1=C(C(=O)O)N2C(=O)C(NC(=O)C(=NO)c3csc(N)n3)C2SC1 (stereo not given) [Cefdinir] | 6.94 min |
| CC(=O)Nc1ccccc1 [Acetanilide] | 1.11 min |
| CCC1(O)C(=O)OCc2c1cc1n(c2=O)Cc2cc3c(CN(C)C)c(O)ccc3nc2-1 (stereo not given) [Topotecan] | 5.72 min |
| CCCSc1ccc2nc(NC(=O)OC)[nH]c2c1 [Albendazole] | 1.22 min |
| CCN(CC)CCN1C(=O)CN=C(c2ccccc2F)c2cc(Cl)ccc21 [Flurazepam] | 2.41 min |
| NC(CCC(=O)NC(CSSCC(N)C(=O)O)C(=O)NCC(=O)O)C(=O)O [L-Cysteine-glutathione disulfide] | 10.2 min |
| COC1C(O)C(CO)OC1n1cnc2c(=O)[nH]c(N)nc21 (stereo not given) [2'-O-Methylguanosine] | 5.72 min |
| Nc1nc2c(ncn2C2CC(OP(=O)(O)O)C(CO)O2)c(=O)[nH]1 (stereo not given) [2'-Deoxyguanosine 3'-monophosphate] | 9.43 min |
| CCC1(CC)C(=O)NCC(C)C1=O (stereo not given) [Methyprylon] | 1.18 min |
| O=C(NCCO[N+](=O)[O-])c1cccnc1 [Nicorandil] | 1.11 min |
| O=C(CCCN1CC=C(n2c(=O)[nH]c3ccccc32)CC1)c1ccc(F)cc1 [Droperidol] | 3.48 min |
| CSCC1OC(n2cnc3c(N)ncnc32)C(O)C1O (stereo not given) [5'-Methylthioadenosine] | 2.49 min |
| CC(C)CC(N(C)C)C1(c2ccc(Cl)cc2)CCC1 (stereo not given) [Sibutramine] | 1.86 min |
| Nc1ncnc2c1ncn2C1OC(CO)C(O)C1O (stereo not given) [Adenosine] | 4.77 min |
| CNS(=O)(=O)Cc1ccc2[nH]cc(CCN(C)C)c2c1 [Sumatriptan] | 4.31 min |

| Structure (SMILES) | LC retention time |
| --- | --- |
| COc1c2ccoc2cc2oc(=O)ccc12 [5-Methoxypsoralen] | 1.07 min |
| C=Cc1ccc(O)c(OC)c1 [2-Methoxy-4-vinylphenol] | 8.71 min |
| CC(Cc1ccccc1)N(C)Cc1ccccc1 (stereo not given) [Benzphetamine] | 2.03 min |
| CC(NC(CCc1ccccc1)C(=O)O)C(=O)N1CCCC1C(=O)O (stereo not given) [Enalaprilat] | 7.07 min |
| NC(=O)N1c2ccccc2CC(=O)c2ccccc21 [Trileptal] | 1.13 min |
| Oc1ccc2c3c1OC1c4[nH]c5ccccc5c4CC4(O)C(C2)N(CC2CC2)CCC314 (stereo not given) [Naltrindole] | 4.45 min |
| COc1cc(OC)c(C(=O)CCCN2CCCC2)c(OC)c1 [Buflomedil] | 2.34 min |
| NC(CCC(=O)NC(CSSCC(NC(=O)CCC(N)C(=O)O)C(=O)NCC(=O)O)C(=O)NCC(=O)O)C(=O)O (stereo not given) [Glutathione (oxidized)] | 10.2 min |
| O=C(O)C(O)c1ccc(O)c(O)c1 (stereo not given) [3,4-Dihydroxymandelic acid] | 2.3 min |
| CCc1ccc(CCOc2ccc(CC3SC(=O)NC3=O)cc2)nc1 (stereo not given) [Pioglitazone] | 1.11 min |
| Oc1ccc2c3c1OC1C(O)CCC4(O)C(C2)N(CC2CCC2)CCC314 (stereo not given) [Nalbuphine] | 5.25 min |
| Cc1ncc(CO)c(CN)c1O [Pyridoxamine] | 8.1 min |
| CC(=O)Oc1ccc2c(C)cc(=O)oc2c1 [4-Methylumbelliferyl acetate] | 1.06 min |
| CCOC(=O)C1=C(C)NC(C)=C(C(=O)OC)C1c1cccc([N+](=O)[O-])c1 (stereo not given) [Nitrendipine] | 0.95 min |
| CCc1nn(CCCN2CCN(c3cccc(Cl)c3)CC2)c(=O)n1CCOc1ccccc1 [Nefazodone] | 1.88 min |
| O=c1c(-c2ccccc2)c1-c1ccccc1 [Diphenylcyclopropenone] | 1.01 min |
| COc1cn(C2OC(CO)C(O)C2O)c(=O)[nH]c1=O (stereo not given) [5-Methoxyuridine] | 4.72 min |
| CC(NC(=O)C(N)CCCN=C(N)N)C(=O)O (stereo not given) [Arg-Ala] | 9.66 min |
| NCCO [Ethanolamine] | 7.15 min |
| O=C1CCCC(=O)C1 [1,3 Cyclohexanedione] | 1.47 min |
| Oc1ccc(C2COc3cc(O)ccc3C2)cc1 (stereo not given) [Equol] | 1.19 min |
| CCN(CC)C(=O)C1(c2ccccc2)CC1CN (stereo not given) [Milnacipran] | 3.23 min |
| CNc1nc2c(ncn2C2OC(CO)C(O)C2O)c(=O)[nH]1 (stereo not given) [N2-Methylguanosine] | 6.4 min |

| Structure (SMILES) | LC retention time |
| --- | --- |
| COC1C(O)C(CO)OC1n1ccc(=O)[nH]c1=O (stereo not given) [2'-O-Methyluridine] | 2.24 min |
| OCC1OC(n2cnc3c(NC4CCCC4O)ncnc32)C(O)C1O (stereo not given) [N-2-Hydroxycyclopentyladenosine] | 3.48 min |
| NCCOP(=O)(O)O [O-Phosphocolamine] | 9.23 min |
| CN1CCN2c3ncccc3Cc3ccccc3C2C1 (stereo not given) [Mirtazapine] | 3.08 min |
| Cn1c(=O)[nH]c2[nH]c(=O)[nH]c2c1=O [1-Methyluric acid] | 2.18 min |
| NCC(=O)NC(Cc1ccc(O)cc1)C(=O)O (stereo not given) [Gly-Tyr] | 8.07 min |
| COC(=O)Nc1nc2ccc(C(=O)c3ccc(F)cc3)cc2[nH]1 [Flubendazole] | 1.16 min |
| NCCCCN [Putrescine] | 9.3 min |
| CCN1CCCC1CNC(=O)c1c(O)c(Cl)cc(Cl)c1OC (stereo not given) [Raclopride] | 2.11 min |
| CN1C(=O)CN=C(c2ccccc2)c2cc(Cl)ccc21 [Diazepam] | 1.1 min |
| Nc1ccn(C2CC(O)C(CO)O2)c(=O)n1 (stereo not given) [2'-Deoxycytidine] | 5.87 min |
| NC(CCOC(=O)CCC(=O)O)C(=O)O (stereo not given) [O-Succinylhomoserine] | 8.06 min |
| CC(c1ncncc1F)C(O)(Cn1cncn1)c1ccc(F)cc1F (stereo not given) [Voriconazole] | 1.02 min |
| CC(C)(O)C1C2OC(=O)C1C1(O)CC3OC34C(=O)OC2C14C (stereo not given) [Picrotin] | 1.21 min |
| CNNCc1ccc(C(=O)NC(C)C)cc1 [Procarbazine] | 4.61 min |
| COc1ccc2[nH]cc(CCO)c2c1 [5-Methoxytryptophol] | 1.18 min |
| O=C(O)CCC(=O)O [Succinic acid] | 4.46 min |
| CN1C(C(=O)Nc2ccccn2)=C(O)c2ccccc2S1(=O)=O [Piroxicam] | 1.02 min |
| Nc1nc2c(c(=O)[nH]1)N(C=O)C(CNc1ccc(C(=O)NC(CCC(=O)O)C(=O)O)cc1)CN2 (stereo not given) [Folinic acid] | 7.92 min |
| Nc1ccccc1S(=O)(=O)O [Orthanilic acid] | 2.52 min |
| C[C@](N)(Cc1cnc[nH]1)C(=O)O [alpha-Methylhistidine] | 8.68 min |
| Cc1[nH]cnc1CN1CCc2c(c3ccccc3n2C)C1=O [Alosetron] | 4.19 min |
| CC(C)(O)CC(=O)O [beta-Hydroxyisovaleric acid] | 4.55 min |

| Structure (SMILES) | LC retention time |
| --- | --- |
| Cc1ccc(C(C)C)c(O)c1 [Thymol] | 1.53 min |
| Nc1nc(Cl)nc2c1ncn2C1CC(O)C(CO)O1 (stereo not given) [Cladribine] | 1.95 min |
| NCCc1ccccn1 [2-(2-Aminoethyl)pyridine] | 5.52 min |
| CC(C)CC(N)C(=O)NC(C)C(=O)O (stereo not given) [Leu-Ala] | 5 min |
| NC(=O)C=CC(=O)O [Maleamic acid] | 1.12 min |
| Nc1nc2nc[nH]c2c(=O)[nH]1 [Guanine] | 6.4 min |
| CCOC(=O)C(C)Oc1ccc(Oc2nc3ccc(Cl)cc3o2)cc1 (stereo not given) [Fenoxaprop-P-ethyl] | 1.01 min |
| N#CCc1c[nH]c2ccccc12 [3-Indoleacetonitrile] | 8.02 min |
| CCCc1nc(C(C)(C)O)c(C(=O)O)n1Cc1ccc(-c2ccccc2-c2nn[nH]n2)cc1 [Olmesartan] | 4.76 min |
| NNCCc1ccccc1 [Phenelzine] | 4.45 min |
| CC(NC(=O)C(Cc1ccc(O)cc1)NC(=O)CN)C(=O)O (stereo not drawn) [Gly-Tyr-Ala] | 7.89 min |
| NC1C(O)OC(COP(=O)(O)O)C(O)C1O (stereo not given) [Glucosamine-6-phosphate] | 10.1 min |
| CCCCCC=CCC=CCCCCCCCC(=O)OC(CC(=O)[O-])C[N+](C)(C)C (stereo not given) [Linoleoylcarnitine] | 3.1 min |
| NCCCCN=C(N)N [Agmatine] | 8.92 min |
| COc1cc(-c2oc3cc(O)cc(O)c3c(=O)c2OC2OC(COC3OC(C)C(O)C(O)C3O)C(O)C(O)C2O)ccc1O (stereo not given) [Isorhamnetin-3-O-rutinoside] | 6.02 min |
| NC(CCSSCCC(N)C(=O)O)C(=O)O (stereo not given) [Homocystine] | 9.58 min |
| O=C(O)COCCN1CCN(C(c2ccccc2)c2ccc(Cl)cc2)CC1 (stereo not given) [Levocetirizine] | 2.9 min |
| NCc1[nH]cc(CCC(=O)O)c1CC(=O)O [Porphobilinogen] | 7.4 min |
| CC(=O)OC1CC(C)(C)C(=C=CC(C)=CC=CC(C)=CC=CC=C(C)C=CC=C(C)C(=O)CC23OC2(C)CC(O)CC3(C)C)C(C)(O)C1 (stereo not given) [Fucoxanthin] | 1.07 min |
| CC1C(=O)Nc2ccccc21 (stereo not given) [3-Methyloxyindole] | 1.07 min |
| Cc1nccn1CC1CCc2c(c3ccccc3n2C)C1=O (stereo not given) [Ondansetron] | 2.83 min |
